In PMC6099617, “Synthesis of Antibacterial Nisin–Peptoid Hybrids Using Click Methodology” (Molecules : A Journal of Synthetic Chemistry and Natural …, 2018):
≈ marks a conversion by molar mass, not a printed value. Read-outs that look alike come from different tables or passages of the source. Square brackets hold non-standard residues; d marks the D form. Peptide text beside a SMILES is read from it. N(4-F-Bzl)Gly = O=C(O)CNCc1ccc(F)cc1; Gly(N-2-aminoethyl) = NCCNCC(=O)O; Nspe = C[C@H](NCC(=O)O)c1ccccc1; Nlys = NCCCCNCC(=O)O

How the values were obtained:
[1] = test system: methicillin-resistant Staphylococcus aureus USA 300
epithelial HepG2 cells = test: Cytotoxicity assay (alamarBlue cell viability), HepG2; format: cell-based; details: 1 hour with compound 2–100 µM, then 24 hours
Procedure: (§1) Cytotoxicity analyses were performed in 96-well plates (Costar, Fisher Scientific) using alamarBlue® (Invitrogen) for cell viability detection using a modified protocol as previously described.9 The HepG2 or HaCaT cells were grown at 37 °C, 5 % CO2 in DMEM10 high glucose supplemented with heat-inactivated foetal bovine sera (FBS, 10 %; Biosera Ltd) and penicillin/streptomycin (P/S, 1 %). Cells were counted using a Neubauer Improved Haemocytometer. Cells were seeded 1 day prior to treatment in 96 well plates at a concentration of 2 x 10^5 cells mL-1 in 100 µL of medium (2 x 10^4 cells/well). Empty wells were filled with 100 µL PBS. After 24 hours, cells were incubated with the compounds in a dilution series in triplicate from 2–100 µM (5 mM stock solutions in DMSO; untreated cells with DMSO as a negative control) in 50 µL of the media for 1 hour. Afterwards, 40 µL of medium was removed from each well before the addition of 90 µL of the media, followed by incubation for 24 hours at 37 °C, 5 % CO2. Then, 10 µL of alamarBlue® (Invitrogen) was added to each well before a 2 hour incubation prior to assessing cell viability using a fluorescent plate reader (Biotek; λex 560 nm, λem 600 nm).

S. aureus = details: had shown promising antibacterial activities; strain and reference not given; cited from earlier work
HaCaT keratinocytes = test: Cytotoxicity assay (alamarBlue cell viability), HaCaT; format: cell-based; details: 1 hour with compound 2–100 µM, then 24 hours
Procedure: as §1

[2] = test system: methicillin-resistant Staphylococcus aureus USA 300; test: microbe, parasite or virus in culture; details: MRSA / USA300, read-out: MIC S. aureus (USA300)

C=C1NC(=O)[C@H]([C@@H](C)CC)NC(=O)[C@H](NC(=O)/C(=C/C)NC(=O)[C@@H](N)[C@@H](C)CC)CSC[C@@H](C(=O)N[C@H]2C(=O)N3CCC[C@H]3C(=O)NCC(=O)N[C@H](C(=O)N[C@@H](CCCCN)C(=O)O)CS[C@H]2C)NC(=O)[C@H](CC(C)C)NC1=O [compound 4, Nisin[1,2,3,4,5,6,7,8,9, 10, 11, 12], reference compound]
MIC S. aureus (USA300) ([1]; MRSA USA300, CAMHB, overnight incubation 35 °C, visual inspection, duplicate): > 100 µM

C[C@@H](c1ccccc1)N(CC(N)=O)C(=O)CN(C(=O)CN(CCN)C(=O)CN(C(=O)CN(C(=O)CN(CCN)C(=O)CN(C(=O)CN(C(=O)CN(CCN)C(=O)CN(C(=O)CN(C(=O)CNCCN)[C@@H](C)c1ccccc1)[C@@H](C)c1ccccc1)[C@@H](C)c1ccccc1)[C@@H](C)c1ccccc1)[C@@H](C)c1ccccc1)[C@@H](C)c1ccccc1)[C@@H](C)c1ccccc1 [1a, (NaeNspeNspe)4] (H-[Gly(N-2-aminoethyl)][Nspe][Nspe][Gly(N-2-aminoethyl)][Nspe][Nspe][Gly(N-2-aminoethyl)][Nspe][Nspe][Gly(N-2-aminoethyl)][Nspe][Nspe]-NH2; N-terminus and C-terminus assumed)
ED50 HepG2 (epithelial HepG2 cells): 15 µM | MIC S. aureus (USA300) ([1]; USA 300): 2 µM (≈ 3.41 µg/mL) | MIC against S. aureus (reason for choosing the sequences) (S. aureus): below 2 µM | ED50 HaCaT (HaCaT keratinocytes): 26 µM

C[C@@H](c1ccccc1)N(CC(N)=O)C(=O)CN(C(=O)CN(CCCCN)C(=O)CN(Cc1ccc(F)cc1)C(=O)CN(Cc1ccc(F)cc1)C(=O)CN(CCCCN)C(=O)CN(C(=O)CN(C(=O)CN(CCCCN)C(=O)CN(Cc1ccc(F)cc1)C(=O)CN(Cc1ccc(F)cc1)C(=O)CNCCCCN)[C@@H](C)c1ccccc1)[C@@H](C)c1ccccc1)[C@@H](C)c1ccccc1 [1b, [(NLysNpfbNpfb)(NLysNspeNspe)]2] (H-[Nlys][N(4-F-Bzl)Gly][N(4-F-Bzl)Gly][Nlys][Nspe][Nspe][Nlys][N(4-F-Bzl)Gly][N(4-F-Bzl)Gly][Nlys][Nspe][Nspe]-NH2; N-terminus and C-terminus assumed)
ED50 HepG2 (epithelial HepG2 cells): 18 µM | MIC S. aureus (USA300) ([1]; USA 300): 2 to 4 µM | MIC against S. aureus (reason for choosing the sequences) (S. aureus): below 2 µM | ED50 HaCaT (HaCaT keratinocytes): 53 µM

CN[C@H](CC(C)C)C(=O)N[C@H]1C(=O)N[C@@H](CC(N)=O)C(=O)N[C@H]2C(=O)N[C@H]3C(=O)N[C@H](C(=O)N[C@H](C(=O)O)c4cc(O)cc(O)c4-c4cc3ccc4O)[C@H](O)c3ccc(c(Cl)c3)Oc3cc2cc(c3O[C@@H]2O[C@H](CO)[C@@H](O)[C@H](O)[C@H]2O[C@H]2C[C@](C)(N)[C@H](O)[C@H](C)O2)Oc2ccc(cc2Cl)[C@H]1O [compound 7, Vancomycin]
MIC [2]: 1 µM (≈ 1.45 µg/mL)
